According to paper PMC5218480 (PLoS ONE, 2017):

Test system: MV-4-11 cells
Assay: Gene expression microarray analysis (Affymetrix PrimeView) and GSEA
Assay type: cell-based, human
Parameters: RFU PODN (11730768_x_at) / Fold change /veh PODN (11730768_x_at) / RFU LINC00158 (11744669_a_at) / Fold change /veh LINC00158 (11744669_a_at) / RFU DUSP10 (11751237_a_at) / Fold change /veh DUSP10 (11751237_a_at) / RFU ID3 (11757404_x_at) / Fold change /veh ID3 (11757404_x_at) / RFU PLEKHG5 (11737974_s_at) / Fold change /veh PLEKHG5 (11737974_s_at) / RFU LRRC4B (11730491_at) / Fold change /veh LRRC4B (11730491_at) / RFU GIMAP4 (11747438_a_at) / Fold change /veh GIMAP4 (11747438_a_at) / RFU KRT8 (11758183_x_at) / Fold change /veh KRT8 (11758183_x_at) / RFU CNN1 (11734310_a_at) / Fold change /veh CNN1 (11734310_a_at) / RFU VPS37D (11726825_at) / Fold change /veh VPS37D (11726825_at) / RFU C10orf10 (11716522_x_at) / Fold change /veh C10orf10 (11716522_x_at) / RFU KIR2DL2 /// KIR2DL4 /// KIR2DL5A /// KIR2DL5B /// KIR2DS1 /// KIR2DS2 /// KIR2DS3 /// KIR2DS4 /// KIR3DL3 /// KIR3DL3 /// KIR3DS1 (11738374_at) / Fold change /veh KIR2DL2 /// KIR2DL4 /// KIR2DL5A /// KIR2DL5B /// KIR2DS1 /// KIR2DS2 /// KIR2DS3 /// KIR2DS4 /// KIR3DL3 /// KIR3DL3 /// KIR3DS1 (11738374_at) / RFU C1QL1 (11718748_at) / Fold change /veh C1QL1 (11718748_at) / RFU TMPRSS4 (11747572_a_at) / Fold change /veh TMPRSS4 (11747572_a_at) / RFU HAMP (11756126_x_at) / Fold change /veh HAMP (11756126_x_at) / RFU RNFT2 (11725882_a_at) / Fold change /veh RNFT2 (11725882_a_at) / RFU NR4A2 (11747474_a_at) / Fold change /veh NR4A2 (11747474_a_at) / RFU ABCC12 (11746883_a_at) / Fold change /veh ABCC12 (11746883_a_at) / RFU TMEM136 (11760407_x_at) / Fold change /veh TMEM136 (11760407_x_at) / RFU CLDN22 /// WWC2 (11732394_at) / Fold change /veh CLDN22 /// WWC2 (11732394_at) / RFU HLA-DPB1 (11760878_x_at) / Fold change /veh HLA-DPB1 (11760878_x_at) / RFU SPINT1 (11716480_a_at) / Fold change /veh SPINT1 (11716480_a_at) / RFU GAP43 (11754022_s_at) / Fold change /veh GAP43 (11754022_s_at) / RFU A4GNT (11735810_at) / Fold change /veh A4GNT (11735810_at) / RFU PRB3 (11715151_x_at) / Fold change /veh PRB3 (11715151_x_at) / RFU TUBB4B (11761932_at) / Fold change /veh TUBB4B (11761932_at) / RFU CAPN14 (11732068_a_at) / Fold change /veh CAPN14 (11732068_a_at) / RFU TMCC2 (11721928_a_at) / Fold change /veh TMCC2 (11721928_a_at) / RFU IRGQ (11745062_a_at) / Fold change /veh IRGQ (11745062_a_at) / RFU FAM174B (11720279_a_at) / Fold change /veh FAM174B (11720279_a_at) / RFU TMPRSS4 (11748680_a_at) / Fold change /veh TMPRSS4 (11748680_a_at) / RFU FAM212B (11763350_a_at) / Fold change /veh FAM212B (11763350_a_at) / RFU PLEKHG5 (11743358_a_at) / Fold change /veh PLEKHG5 (11743358_a_at) / RFU ZSCAN30 (11745921_a_at) / Fold change /veh ZSCAN30 (11745921_a_at) / RFU CMKLR1 (11741424_a_at) / Fold change /veh CMKLR1 (11741424_a_at) / RFU LOC101060620 /// MAPK8IP1 (11723275_at) / Fold change /veh LOC101060620 /// MAPK8IP1 (11723275_at) / RFU SPTSSB (11747773_x_at) / Fold change /veh SPTSSB (11747773_x_at) / RFU PRSS12 (11739890_at) / Fold change /veh PRSS12 (11739890_at) / RFU BIN1 (11741810_x_at) / Fold change /veh BIN1 (11741810_x_at) / RFU WNT11 (11732464_a_at) / Fold change /veh WNT11 (11732464_a_at) / RFU C10orf10 (11716521_a_at) / Fold change /veh C10orf10 (11716521_a_at) / RFU C5orf56 (11738089_at) / Fold change /veh C5orf56 (11738089_at) / RFU CYB561 (11721691_x_at) / Fold change /veh CYB561 (11721691_x_at) / RFU ANKRD19P (11752326_a_at) / Fold change /veh ANKRD19P (11752326_a_at) / RFU OR2T12 /// OR2T33 /// OR2T8 (11738714_s_at) / Fold change /veh OR2T12 /// OR2T33 /// OR2T8 (11738714_s_at) / RFU VCAN (11748164_a_at) / Fold change /veh VCAN (11748164_a_at) / RFU JSRP1 (11732532_at) / Fold change /veh JSRP1 (11732532_at) / RFU KRTAP10-11 (11738290_x_at) / Fold change /veh KRTAP10-11 (11738290_x_at) / RFU MYO3A (11730013_a_at) / Fold change /veh MYO3A (11730013_a_at) / RFU EBF3 (11725865_a_at) / Fold change /veh EBF3 (11725865_a_at) / RFU CAMK2N1 (11719241_x_at) / Fold change /veh CAMK2N1 (11719241_x_at) / RFU C5orf56 (11738088_a_at) / Fold change /veh C5orf56 (11738088_a_at) / RFU OLFML3 (11715873_a_at) / Fold change /veh OLFML3 (11715873_a_at) / RFU LOC100653217 /// NTM (11731650_a_at) / Fold change /veh LOC100653217 /// NTM (11731650_a_at) / RFU MAPK11 (11762145_a_at) / Fold change /veh MAPK11 (11762145_a_at) / RFU FIZ1 (11724087_x_at) / Fold change /veh FIZ1 (11724087_x_at) / RFU OASL (11726364_x_at) / Fold change /veh OASL (11726364_x_at) / RFU SOX15 (11748057_x_at) / Fold change /veh SOX15 (11748057_x_at) / RFU CD79A (11719716_a_at) / Fold change /veh CD79A (11719716_a_at) / RFU HIST1H1D (11736915_at) / Fold change /veh HIST1H1D (11736915_at) / RFU CASKIN2 (11723855_a_at) / Fold change /veh CASKIN2 (11723855_a_at) / RFU LOC730098 (11760151_x_at) / Fold change /veh LOC730098 (11760151_x_at) / RFU OR4N2 (11742367_at) / Fold change /veh OR4N2 (11742367_at) / RFU PRRT2 (11749266_a_at) / Fold change /veh PRRT2 (11749266_a_at) / RFU SNX32 (11753110_a_at) / Fold change /veh SNX32 (11753110_a_at) / RFU CDHR5 (11726645_a_at) / Fold change /veh CDHR5 (11726645_a_at) / RFU RCAN1 (11760418_a_at) / Fold change /veh RCAN1 (11760418_a_at) / RFU FAM167A (11723789_a_at) / Fold change /veh FAM167A (11723789_a_at) / RFU FAM26E (11764081_at) / Fold change /veh FAM26E (11764081_at) / RFU ISYNA1 (11749810_s_at) / Fold change /veh ISYNA1 (11749810_s_at) / RFU ACY1 (11761880_at) / Fold change /veh ACY1 (11761880_at) / RFU 11764098_at / Fold change /veh 11764098_at / RFU SAMD14 (11745864_x_at) / Fold change /veh SAMD14 (11745864_x_at) / RFU NPB (11741838_a_at) / Fold change /veh NPB (11741838_a_at) / RFU TMPRSS6 (11731388_a_at) / Fold change /veh TMPRSS6 (11731388_a_at) / RFU KRTAP10-2 (11738614_at) / Fold change /veh KRTAP10-2 (11738614_at) / RFU ARHGAP8 /// PRR5-ARHGAP8 (11727945_x_at) / Fold change /veh ARHGAP8 /// PRR5-ARHGAP8 (11727945_x_at) / RFU KRTAP5-7 /// NADSYN1 (11734609_at) / Fold change /veh KRTAP5-7 /// NADSYN1 (11734609_at) / RFU RASL12 (11751679_a_at) / Fold change /veh RASL12 (11751679_a_at) / RFU CDKN2B (11736163_a_at) / Fold change /veh CDKN2B (11736163_a_at) / RFU PRF1 (11729649_at) / Fold change /veh PRF1 (11729649_at) / RFU, ZNF638 /// ZNF638-IT1 / Fold change vs veh, ZNF638 /// ZNF638-IT1 / RFU, PANK3 / Fold change vs veh, PANK3 / RFU, SH3YL1 / Fold change vs veh, SH3YL1 / RFU, ZEB2 / Fold change vs veh, ZEB2 / RFU, NRIP1 / Fold change vs veh, NRIP1 / RFU, PTTG1IP / Fold change vs veh, PTTG1IP / RFU, CAPN2 / Fold change vs veh, CAPN2 / RFU, MED14 / Fold change vs veh, MED14 / RFU, SNORA58 / Fold change vs veh, SNORA58 / RFU, C1orf63 / Fold change vs veh, C1orf63 / RFU, LRRFIP1 / Fold change vs veh, LRRFIP1 / RFU, NDUFAF7 / Fold change vs veh, NDUFAF7 / RFU, SLC12A2 / Fold change vs veh, SLC12A2 / RFU, IBTK / Fold change vs veh, IBTK / RFU, ESF1 / Fold change vs veh, ESF1 / Fold change vs veh, TMEM50B / RFU, TAOK1 / Fold change vs veh, TAOK1 / RFU, ACBD3 / Fold change vs veh, ACBD3 / RFU, TMA16 / Fold change vs veh, TMA16 / RFU, RWDD3 / Fold change vs veh, RWDD3 / RFU, BCAT1 / Fold change vs veh, BCAT1 / RFU, EDEM3 / Fold change vs veh, EDEM3 / RFU, TMEM33 / Fold change vs veh, TMEM33 / RFU, WDR75 / Fold change vs veh, WDR75 / RFU, AHCTF1 / Fold change vs veh, AHCTF1 / RFU, TFRC / Fold change vs veh, TFRC / RFU, ZDHHC17 / Fold change vs veh, ZDHHC17 / RFU, NOM1 / Fold change vs veh, NOM1 / RFU, ARL8B / Fold change vs veh, ARL8B / RFU, ZBTB11 / Fold change vs veh, ZBTB11 / RFU, TAMM41 / Fold change vs veh, TAMM41 / RFU, KIAA1704 /// LOC100996395 / Fold change vs veh, KIAA1704 /// LOC100996395 / RFU, ING1 / Fold change vs veh, ING1 / RFU, TRMT61B / Fold change vs veh, TRMT61B / RFU, FUBP3 / Fold change vs veh, FUBP3 / RFU, TP53 / Fold change vs veh, TP53 / RFU, TNKS2 / Fold change vs veh, TNKS2 / RFU, ZFP14 / Fold change vs veh, ZFP14 / RFU, ACTR2 / Fold change vs veh, ACTR2 / RFU, PPP3R1 / Fold change vs veh, PPP3R1 / RFU, PIK3R1 / Fold change vs veh, PIK3R1 / RFU, HNRNPA1 / Fold change vs veh, HNRNPA1 / RFU, RNF170 / Fold change vs veh, RNF170 / RFU, ZNF28 / Fold change vs veh, ZNF28 / RFU, RNGTT / Fold change vs veh, RNGTT / RFU, OGT / Fold change vs veh, OGT / RFU, BRD1 / Fold change vs veh, BRD1 / RFU, MARS / Fold change vs veh, MARS / RFU, ZNF655 / Fold change vs veh, ZNF655 / RFU, FAHD1 / Fold change vs veh, FAHD1 / RFU, BDP1 / Fold change vs veh, BDP1 / RFU, LRRCC1 / Fold change vs veh, LRRCC1 / RFU, ARID1A / Fold change vs veh, ARID1A / RFU, ZNF146 / Fold change vs veh, ZNF146 / RFU, ZNF330 / Fold change vs veh, ZNF330 / RFU, GPN3 / Fold change vs veh, GPN3 / RFU, C9orf123 / Fold change vs veh, C9orf123 / RFU, N4BP2L2 / Fold change vs veh, N4BP2L2 / RFU, ARFIP1 / Fold change vs veh, ARFIP1 / RFU, FAM179B / Fold change vs veh, FAM179B / RFU, BCL10 / Fold change vs veh, BCL10 / RFU, UHRF1BP1L / Fold change vs veh, UHRF1BP1L / RFU, BET1 / Fold change vs veh, BET1 / RFU, CNOT2 / Fold change vs veh, CNOT2 / RFU, ZNF268 / Fold change vs veh, ZNF268 / Fold change vs veh, ZNF507 / RFU, DGCR2 / Fold change vs veh, DGCR2 / RFU, WDSUB1 / Fold change vs veh, WDSUB1 / Fold change vs veh, HSP90B1 /// MIR3652 / RFU, ADSS / Fold change vs veh, ADSS / RFU, GK / Fold change vs veh, GK / RFU, ZNF148 / Fold change vs veh, ZNF148 / RFU, TAF9 / Fold change vs veh, TAF9 / RFU, SLC1A5 / Fold change vs veh, SLC1A5 / RFU, SLMO2 / Fold change vs veh, SLMO2 / RFU, ABCC4 / Fold change vs veh, ABCC4 / RFU, LOC101060439 /// RAP1B / Fold change vs veh, LOC101060439 /// RAP1B / RFU, RFX7 / Fold change vs veh, RFX7 / RFU, GTPBP10 / Fold change vs veh, GTPBP10 / RFU, CNEP1R1 / Fold change vs veh, CNEP1R1 / RFU, BIVM-ERCC5 /// ERCC5 / Fold change vs veh, BIVM-ERCC5 /// ERCC5 / RFU, ILF3 / Fold change vs veh, ILF3 / RFU 11762660_at / Fold change /veh 11762660_at / RFU VCAN (11757783_s_at) / Fold change /veh VCAN (11757783_s_at) / RFU DDX43 (11728927_at) / Fold change /veh DDX43 (11728927_at) / RFU KRT8 (11758188_x_at) / Fold change /veh KRT8 (11758188_x_at) / RFU NKD1 (11759106_at) / Fold change /veh NKD1 (11759106_at) / RFU SRD5A1 (11742802_a_at) / Fold change /veh SRD5A1 (11742802_a_at) / RFU TPSAB1 /// TPSB2 (11721975_s_at) / Fold change /veh TPSAB1 /// TPSB2 (11721975_s_at) / RFU GSTM3 (11746129_a_at) / Fold change /veh GSTM3 (11746129_a_at) / RFU IL23R (11737362_x_at) / Fold change /veh IL23R (11737362_x_at) / RFU TMEM51 (11727254_a_at) / Fold change /veh TMEM51 (11727254_a_at) / RFU PIWIL2 (11732686_x_at) / Fold change /veh PIWIL2 (11732686_x_at) / RFU ORM1 (11744905_x_at) / Fold change /veh ORM1 (11744905_x_at) / RFU CCDC152 (11743942_at) / Fold change /veh CCDC152 (11743942_at) / RFU ECM1 (11717891_a_at) / Fold change /veh ECM1 (11717891_a_at) / RFU IL23R (11748794_a_at) / Fold change /veh IL23R (11748794_a_at) / RFU TNFAIP8L3 (11732012_x_at) / Fold change /veh TNFAIP8L3 (11732012_x_at) / RFU MBOAT4 (11741988_at) / Fold change /veh MBOAT4 (11741988_at) / RFU 11764193_at / Fold change /veh 11764193_at / RFU TMEM53 (11763286_at) / Fold change /veh TMEM53 (11763286_at) / RFU MAGEB2 (11727129_at) / Fold change /veh MAGEB2 (11727129_at) / RFU TMEM200A (11744735_a_at) / Fold change /veh TMEM200A (11744735_a_at) / RFU CCDC152 (11751479_a_at) / Fold change /veh CCDC152 (11751479_a_at) / RFU FAM211A (11726209_a_at) / Fold change /veh FAM211A (11726209_a_at) / RFU RGS16 (11746705_a_at) / Fold change /veh RGS16 (11746705_a_at) / RFU VCAN (11755009_s_at) / Fold change /veh VCAN (11755009_s_at) / RFU RHOB (11743442_s_at) / Fold change /veh RHOB (11743442_s_at) / RFU RGS16 (11720943_a_at) / Fold change /veh RGS16 (11720943_a_at) / RFU RGS16 (11720944_at) / Fold change /veh RGS16 (11720944_at) / RFU, VPS4B / Fold change vs veh, VPS4B / RFU, CREB1 / Fold change vs veh, CREB1 / RFU, DNAJC13 / Fold change vs veh, DNAJC13 / RFU, GNAQ / Fold change vs veh, GNAQ / RFU, CDK5R1 / Fold change vs veh, CDK5R1 / RFU, ZRANB3 / Fold change vs veh, ZRANB3 / RFU, CUL4A / Fold change vs veh, CUL4A / RFU, CCNY / Fold change vs veh, CCNY / RFU, UFL1 / Fold change vs veh, UFL1 / RFU, COG3 / Fold change vs veh, COG3 / RFU, DIAPH2 / Fold change vs veh, DIAPH2 / RFU, SKA2 / Fold change vs veh, SKA2 / RFU, AFF3 / Fold change vs veh, AFF3 / RFU, LMF1 / Fold change vs veh, LMF1 / RFU, IPO11 / Fold change vs veh, IPO11 / RFU, DFFB / Fold change vs veh, DFFB / RFU, FOXP1 / Fold change vs veh, FOXP1 / RFU, CARD8 / Fold change vs veh, CARD8 / RFU, STRN3 / Fold change vs veh, STRN3 / RFU, ADK / Fold change vs veh, ADK / RFU, RASSF2 / Fold change vs veh, RASSF2 / RFU, WIPF1 / Fold change vs veh, WIPF1 / RFU, LARP1B / Fold change vs veh, LARP1B / RFU, RASA1 / Fold change vs veh, RASA1 / RFU, RB1 / Fold change vs veh, RB1 / RFU, PPFIA1 / Fold change vs veh, PPFIA1 / RFU, MAT2A / Fold change vs veh, MAT2A / RFU, CCT5 / Fold change vs veh, CCT5 / RFU, WDR92 / Fold change vs veh, WDR92 / RFU, CUX1 / Fold change vs veh, CUX1 / RFU, TTC7A / Fold change vs veh, TTC7A / RFU, TMEM135 / Fold change vs veh, TMEM135 / RFU, DEPTOR / Fold change vs veh, DEPTOR / RFU, CPM / Fold change vs veh, CPM / RFU, DNAJB6 / Fold change vs veh, DNAJB6 / RFU, CACNA2D3 / Fold change vs veh, CACNA2D3 / RFU, DTX4 / Fold change vs veh, DTX4 / RFU, TFCP2 / Fold change vs veh, TFCP2 / RFU, GMCL1 /// GMCL1P1 / Fold change vs veh, GMCL1 /// GMCL1P1 / RFU, AEBP2 / Fold change vs veh, AEBP2 / RFU, SNHG1 /// SNORD22 /// SNORD25 /// SNORD26 /// SNORD27 /// SNORD28 /// SNORD29 /// SNORD31 / Fold change vs veh, SNHG1 /// SNORD22 /// SNORD25 /// SNORD26 /// SNORD27 /// SNORD28 /// SNORD29 /// SNORD31 / Fold change (Aza/veh), C12orf56 (ProbeSet 11735607_a_at) / Fold change (ACY-1035/veh), C12orf56 (ProbeSet 11735607_a_at) / Fold change (Aza/veh), FGFR1OP (ProbeSet 11751329_s_at) / Fold change (ACY-1035/veh), FGFR1OP (ProbeSet 11751329_s_at) / Fold change (Aza/veh), VPS36 (ProbeSet 11739960_a_at) / Fold change (ACY-1035/veh), VPS36 (ProbeSet 11739960_a_at) / RFU SYPL1 (11715823_x_at) / Fold change /veh SYPL1 (11715823_x_at) / RFU IGFBP7 (11715501_s_at) / Fold change /veh IGFBP7 (11715501_s_at) / RFU REEP3 (11722064_at) / Fold change /veh REEP3 (11722064_at) / RFU IGLL1 (11728026_x_at) / Fold change /veh IGLL1 (11728026_x_at): dose or concentration left out as unconfirmed
Details: MV-4-11 cells, 48 hours

Structure (SMILES): Nc1ncn([C@@H]2O[C@H](CO)[C@@H](O)[C@H]2O)c(=O)n1 [azacitidine]
- RFU MAPK11 (11762145_a_at): 24.54 RFU
